Laboratory results reported in patent US20180312473A1, “PHENAZINE DERIVATIVES AS ANTIMICROBIAL AGENTS” (priority 2015, published 2018).
Converted amounts (≈) assume the structure as drawn. Read-outs that look alike come from different tables or passages of the source.

Legend:
[1] = test system: Staphylococcus epidermidis (ATCC 12228); assay: MIC assay (broth microdilution, CLSI); type: cell-based
[2] = test system: Staphylococcus epidermidis (ATCC 35984), MRSE; assay: MIC assay (broth microdilution, CLSI); type: cell-based; details: for MIC: Staphylococcus epidermidis
human red blood cells = assay: Hemolysis assay with red blood cells
Experimental: The hemolysis activities of select compounds of the invention were determined. […] The washing was repeated three times with the buffer. In 96-well plate, test compounds were added to the buffer from DMSO stocks. […] The plate was then incubated for 1 hour at 37° C. After incubation, the plate was centrifuged for 5 minutes at 3,500 rpm. Then 80 μL of the supernatant was transferred to another 96-well plate, and the optical density (OD) was read at 405 nm. DMSO served as the negative control (0% hemolysis), while Triton X served as the positive control (100% hemolysis). The percent of hemolysis was calculated as (OD405 of the compound−OD405 of DMSO)/(OD405 of Triton X−OD405 of the buffer).
The washing was repeated three times with the buffer. In 96-well plate, test compounds were added to the buffer from DMSO stocks. […] The plate was then incubated for 1 hour at 37° C. After incubation, the plate was centrifuged for 5 minutes at 3,500 rpm. Then 80 μL of the supernatant was transferred to another 96-well plate and the optical density (OD) was read at 405 nm. DMSO served as our negative control (0% hemolysis) while Triton X served as our positive control (100% hemolysis). The percent of hemolysis was calculated as (OD405 of the test compound−OD405 DMSO)/(OD405 Triton X−OD405 buffer) from three independent experiments.

MRSA BAA-44 = assay: MIC assay (broth microdilution, CLSI); details: Staphylococcus aureus, read-out: MIC, MRSA BAA-44
[3] = test system: MRSA-1 (methicillin-resistant Staphylococcus aureus clinical isolate); assay: MIC assay (broth microdilution, CLSI); type: cell-based; details: Table 2A
[4] = test system: MRSA-2 planktonic cells and biofilms; assay: Calgary Biofilm Device (CBD) assay, MBC/MBEC; type: cell-based, Staphylococcus aureus
[5] = test system: MRSA-2 (methicillin-resistant Staphylococcus aureus clinical isolate); assay: MIC assay (broth microdilution, CLSI); type: cell-based; details: read-out: MIC, MRSA-2
[6] = test system: Enterococcus faecium (ATCC 700221), VRE; assay: MIC assay (broth microdilution, CLSI); type: cell-based
MRSA BAA-1707 = assay: MIC assay (broth microdilution, CLSI); details: Staphylococcus aureus, read-out: MIC, MRSA BAA-1707
[7] = test system: VRE (E. faecium ATCC 700221) planktonic cells and biofilms; assay: Calgary Biofilm Device (CBD) assay, MBC/MBEC; type: cell-based, Enterococcus faecium; details: Enterococcus; Table 8; c lowest concentration tested; read-out: VRE 700221 MBC
[8] = test system: MRSE (S. epidermidis ATCC 35984) planktonic cells and biofilms; assay: Calgary Biofilm Device (CBD) assay, MBC/MBEC; type: cell-based, Staphylococcus epidermidis; details: Staphylococcus epidermidis; Table 8; read-out: MRSE 35984 MBC
HeLa cells = assay: in vitro; type: cell-based
Experimental: (§1) The cytotoxicities of select compounds of the invention against HeLa cells were determined. HeLa cytotoxicity was assessed using the LDH release assay described by CYTOTOX96 (Promega G1780). HeLa cells were grown in Dulbecco's Modified Eagle Medium (DMEM; Gibco) supplemented with 10% Fetal Bovine Serum (FBS) at 37° C. with 5% CO2. […] Triton X-100 (at 2% v/v) was used as the positive control for maximum lactate dehydrogenate (LDH) activity in this assay (e.g., complete cell death), while “medium only” lanes served as negative control lanes (e.g., no cell death). DMSO was used as the vehicle control. […] Finally, Stop Solution (50 μL) was added to the incubating plates, and the absorbance was measured at 490 nm.
(§2) HeLa cytotoxicity was assessed using the LDH release assay described by CYTOTOX96 (Promega G1780). HeLa cells were grown in Dulbecco's Modified Eagle Medium (DMEM; Gibco) supplemented with 10% Fetal Bovine Serum (FBS) at 37° C. with 5% CO2. […] Triton X-100 (at 2% v/v) was used as the positive control for maximum lactate dehydrogenate (LDH) activity in this assay (e.g., complete cell death), while “medium only” lanes served as negative control lanes (e.g., no cell death). DMSO was used as our vehicle control. […] Finally, Stop Solution (50 μL) was added to the incubating plates and the absorbance was measured at 490 nm. Results are from three independent experiments (FIG. 19)

in vitro = type: cell-based; details: human
Experimental: as §1, §2

[9] = Staphylococcus epidermidis, ATCC12228, Table 2A, read-out: MIC, Staphylococcus epidermidis (ATCC 12228)
[10] = Staphylococcus epidermidis, ATCC12228, Table 7, b lowest concentration tested, read-out: MIC, S. epidermidis 12228
[11] = Table 2A, read-out: MIC, Staphylococcus epidermidis (ATCC 35984)
[12] = Table 7, read-out: MIC, MRSE 35984
[13] = Staphylococcus aureus, MRSA, Table 4, read-out: MBC, MRSA-2
[14] = Staphylococcus aureus, MRSA, Table 8, a/b 2-/4-fold range in independent experiments, read-out: MRSA-2 MBC
[15] = Staphylococcus aureus, MRSA, Table 2A
[16] = Staphylococcus aureus, MRSA, Table 7, a midpoint of 2-fold range, b lowest concentration tested
[17] = Enterococcus faecium, Table 2A, read-out: MIC, Enterococcus faecium (ATCC 700221)
[18] = Table 7, b lowest concentration tested, read-out: MIC, VRE 700221

Compound	MIC [1, 9]	MIC [1, 10]	MIC [2, 11]	MIC [2, 12]	% Hemolysis (200 μM) (human red blood cells; human, 1 h, 200 μM, pH 7.2)	% Hemolysis at 200 μM (human red blood cells; human, 1 h, 200 μM, pH 7.2)	MIC (MRSA BAA-44)	MBC [4, 13]	MBC [4, 14]	MBEC:MBC ratio, MRSA-2 ([4]; Table 4)	melting point	MIC [5, 15]	MIC [5, 16]	MIC [6, 17]	MIC [6, 18]	MIC (MRSA BAA-1707)	MBC [7]	MBC [8]	IC50 at 24 h (in vitro)	further results
Oc1c(Cl)cc(Cl)c2nc3ccccc3nc12 [Compound 3, 2,4-Dichloro-1-hydroxyphenazine]	3.13 µM (≈ 0.83 µg/mL)	3.13 µM (≈ 0.83 µg/mL)	3.13 µM (≈ 0.83 µg/mL)	3.13 µM (≈ 0.83 µg/mL)	≤1%	≤1%	3.13 µM (≈ 0.83 µg/mL)	62.5 µM (≈ 16.6 µg/mL)	62.5 µM (≈ 16.6 µg/mL)	>16.0	205 to 207 °C	3.13 µM (≈ 0.83 µg/mL)	3.13 µM (≈ 0.83 µg/mL)	12.5 µM (≈ 3.31 µg/mL)	12.5 µM (≈ 3.31 µg/mL)	3.13 µM (≈ 0.83 µg/mL)	–	–	–	MIC ([3]; Staphylococcus aureus, MRSA, read-out: MIC, MRSA-1): 3.13 µM (≈ 0.83 µg/mL)
Oc1c(I)cc(I)c2nc3ccccc3nc12 [Compound 4, 2,4,-Diiodo-1-hydroxyphenazine]	–	1.56 µM (≈ 0.699 µg/mL)	–	1.17 µM (≈ 0.524 µg/mL)	–	≤1%	3.13 µM (≈ 1.4 µg/mL)	–	31.3 µM (≈ 14 µg/mL)	3.0	–	–	3.13 µM (≈ 1.4 µg/mL)	–	6.25 µM (≈ 2.8 µg/mL)	3.13 µM (≈ 1.4 µg/mL)	23.5 µM (≈ 10.5 µg/mL)	31.3 µM (≈ 14 µg/mL)	> 100 µM	MIC ([1]; Table 2A, read-out: MIC, Staphylococcus epidermidis (ATCC 12228)): 1.56 µM (≈ 0.699 µg/mL); MIC, Staphylococcus epidermidis (ATCC 35984) ([2]; Table 2A): 0.78 to 1.56 µM; % Hemolysis (200 μM) (human red blood cells): ≤1%; MIC, MRSA-1 [3]: 0.78 to 1.56 µM; MBEC, MRSA-2 ([4]; Table 4): 93.8 µM; MBC ([4]; Table 4, read-out: MBC, MRSA-2): 31.3 µM (≈ 14 µg/mL); MIC ([5]; Table 2A): 3.13 µM (≈ 1.4 µg/mL); MIC ([6]; Table 2A, read-out: MIC, Enterococcus faecium (ATCC 700221)): 6.25 µM (≈ 2.8 µg/mL); IC50 (HeLa cells): > 100 µM
Oc1c(Cl)cc(Br)c2nc3ccccc3nc12 [Compound 5, 4-Bromo-2-chloro-1-hydroxyphenazine]	3.13 µM (≈ 0.969 µg/mL)	3.13 µM (≈ 0.969 µg/mL)	–	–	≤1%	≤1%	3.13 µM (≈ 0.969 µg/mL)	62.5 µM (≈ 19.3 µg/mL)	62.5 µM (≈ 19.3 µg/mL)	–	229 to 231 °C	–	–	6.25 µM (≈ 1.93 µg/mL)	6.25 µM (≈ 1.93 µg/mL)	–	11.7 µM (≈ 3.62 µg/mL)	31.3 µM (≈ 9.69 µg/mL)	> 100 µM	IC50 (HeLa cells; human, 24 h): > 100 µM
Oc1c(I)cc(Cl)c2nc3ccccc3nc12 [Compound 9, 4-Chloro-2-iodo-1-hydroxyphenazine]	25 µM (≈ 8.91 µg/mL)	25 µM (≈ 8.91 µg/mL)	25 µM (≈ 8.91 µg/mL)	25 µM (≈ 8.91 µg/mL)	≤1%	≤1%	12.5 µM (≈ 4.46 µg/mL)	93.8 µM (≈ 33.4 µg/mL)	93.8 µM (≈ 33.4 µg/mL)	2.7	175 to 177 °C	25 µM (≈ 8.91 µg/mL)	25 µM (≈ 8.91 µg/mL)	6.25 µM (≈ 2.23 µg/mL)	6.25 µM (≈ 2.23 µg/mL)	3.13 µM (≈ 1.12 µg/mL)	–	125 µM (≈ 44.6 µg/mL)	–	–
Oc1c(I)cc(Br)c2nc3ccccc3nc12 [Compound 10, 4-Bromo-2-iodo-1-hydroxyphenazine]	–	–	–	–	1.3%	1.3%	–	46.9 µM (≈ 18.8 µg/mL)	46.9 µM (≈ 18.8 µg/mL)	–	188 to 190 °C	–	–	6.25 µM (≈ 2.51 µg/mL)	6.25 µM (≈ 2.51 µg/mL)	–	–	–	–	–
C=CCc1cc(Br)c2nc3cc(Br)c(Br)cc3nc2c1O [Compound 24, 2-Allyl-4,7,8-tribromo-1-hydroxyphenazine]	–	> 100 µM	–	–	–	–	–	–	–	–	187 to 189 °C	–	> 100 µM	–	> 100 µM	–	–	–	–	–
